Assay results published in patent US10744181B2, “Glycopeptide derivatives for use in the treatment and/or prevention and/or attenuation of fibrosis diseases” (TFCHEM, priority 2017, dated 2020).
Marks after values point to notes of the source that are not given here.

Key:
Type in all cases: cell-based, human
[1] = test system: collagen I/collagen III ratio; experiment: Collagen I/collagen III ratio in normal fibroblasts; details: normal fibroblasts (NF), compound at 9.4 mM
Procedure: (§1) Primary cultures of keloid fibroblasts (KF) and normal fibroblasts (NF) were obtained from operative wastes (keloid and abdominoplasty). After thawing, cells were grown in Dulbecco's modified Eagle's medium (DMEM) supplemented with 10% of fetal calf serum, 40 mg/l of gentamicin and 2 mg/l of fungizone (DMEMc), in an incubator at 37° C., 5% CO2. Culture medium was changed twice a week and cells were subcultured by trypsinization when confluence was reached. Cells were used under 10 passages.
(§2) Compound 1 was directly diluted in culture medium at 5 mg/ml.
Fibroblasts were seeded in 6 wells culture plate at the concentration of 0.08·10^6 cells/well (n=6). After 48 hours of culture, wells were washed with 3 ml of PBS. 2 ml of each solution of tested compound were added per wells. […]
(§3) The synthetized collagen quantity is expressed as the ratio of quantity of collagen vs quantity of total proteins in the sample.
Collagen I synthesis was evaluated by Enzyme-linked immunosorbent assay with an ELISA kit (USCN SEA571Hu, Euromedex). […] The enzyme-substrate reaction is terminated by the addition of sulfuric acid solution and the color change is measured spectrophotometrically at 450 nm. The concentration of collagen I in the samples is then determined by comparing the optical density of the samples to the standard curve. The results were expressed as pg of collagen I by mg of proteins. […]

[2] = test system: Collagen I; experiment: Collagen I synthesis (ELISA) in normal fibroblasts; details: normal fibroblasts (NF), compound at 9.4 mM, 48 hours; pg collagen I per mg proteins
Procedure: as §1, §2
(§4) Fibroblasts were seeded in 6 wells culture plate at the concentration of 0.08·10^6 cells/well (n=6). […]
as §3
(§5) The quantity of total protein was determined using a biochemical test, the bicinchoninic acid assay (BCA assay). […] Absorbance is read immediately at 550 nm (Spectrophotometer Multiscan Ex, Thermo). The standard curve is drawn and the sample protein concentration is determined with this curve. […]
Collagen I synthesis was evaluated by Enzyme-linked immunosorbent assay with an ELISA kit (USCN SEA571Hu, Euromedex). […] The enzyme-substrate reaction is terminated by the addition of sulfuric acid solution and the color change is measured spectrophotometrically at 450 nm. […]
(§6) Data are expressed as mean+/−sem. […]

[3] = test system: Collagen III; experiment: Collagen III synthesis (ELISA) in normal fibroblasts; details: normal fibroblasts (NF), compound at 9.4 mM, 48 hours; ng collagen III per mg proteins
Procedure: as §1, §2, §4, §3, §5
Collagen III synthesis is performed by Enzyme-linked immunosorbent assay with an ELISA kit (USCN SEA576Hu, Euromedex). […] The enzyme-substrate reaction is terminated by the addition of sulfuric acid solution and the color change is measured spectrophotometrically at 450 nm. […]
as §6

**Q.** Which results are given for `C[C@H](NC(=O)[C@H](C)NC(=O)[C@@H](N)CCCCNCC(F)(F)[C@]1(O)O[C@H](CO)[C@H](O)[C@H](O)[C@H]1O)C(=O)O` [Compound 1]?
**A.** Ratio collagen I/collagen III [1]: 4.39.10^−3; Protein Collagen I, Mean [2]: 28.85*** pg/mg; Protein Collagen III, Mean [3]: 6.57*** ng/mg
